PubChem BioAssay (NCI)
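Briefly, cells in 96-well plates were exposed to five compound concentrations for 48 h, and endpoints were estimated by linear interpolation. Abbreviation: GI50, concentration required for 50% inhibition of growth. TGI: total growth inhibition.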

Assays:
Test in all cases: inhibition of tumour cell growth, NCI panel, 48 h
[1] = test system: NCI-H522 lung
[2] = test system: HL-60(TB) leukemia
[3] = test system: MALME-3M melanoma
[4] = test system: HCC-2998 colon
[5] = test system: RPMI-8226 leukemia
[6] = test system: K-562 leukemia
[7] = test system: OVCAR-8 ovarian
[8] = test system: SNB-19 CNS
[9] = test system: SF-268 CNS
[10] = test system: SF-295 CNS

Structure (SMILES)	GI50 [1] [µM]	TGI [1] [µM]	GI50 [2]	TGI [2]	GI50 [3] [µM]	TGI [3] [µM]	GI50 [4] [µM]	TGI [4] [µM]	GI50 [5]	TGI [5]	GI50 [6]	TGI [6]	GI50 [7]	TGI [7]	GI50 [8]	TGI [8]	GI50 [9]	TGI [9]	GI50 [10]	TGI [10]
CC(=O)[CH-]C(=O)c1ccccc1.CC(=O)[CH-]C(=O)c1ccccc1.C[C@]12CCC(=O)C=C1CC[C@@H]1C2CC[C@@]2(C)C1CC[C@@H]2[O-].C[C@]12CCC(=O)C=C1CC[C@@H]1C2CC[C@@]2(C)C1CC[C@@H]2[O-].Cl.[Ti+4] (some centres undefined)	13.6	34.8	8.82 µM	69.1 µM	20.1	46.8	21.8	42.2	18.8 µM	> 100 µM	23.2 µM	> 100 µM	22.6 µM	93.6 µM						
CCOc1cccc(-c2nc(N)nc(Nc3ccccc3SSc3ccccc3Nc3nc(N)nc(-c4cccc(OCC)c4)n3)n2)c1	7.77	48.9	2.14 µM	6.09 µM	5.63	> 100	> 100	> 100	2.18 µM	6.89 µM	3.33 µM	> 100 µM	4.43 µM	> 100 µM	4.94 µM	> 100 µM	3.84 µM	> 100 µM	3.92 µM	> 100 µM
CS(=O)(=O)CC(=O)c1ccccc1		> 100		> 100 µM		> 100		> 100		> 100 µM		> 100 µM		> 100 µM		> 100 µM		> 100 µM		> 100 µM
OCc1c[te]c(-c2ccccc2)c1				45.1 µM		> 100		> 100		86.8 µM		> 100 µM		> 100 µM						
CCNC(=O)O/N=C1\CCC2[C@@H]3CC=C4C[C@@H](OC5CCCCO5)CC[C@]4(C)C3CC[C@]12C (some centres undefined)								8.51		4.8 µM				18.2 µM		9.94 µM				7.11 µM
c1ccc2cc(C[n+]3ccn(CCCCCCCCCCn4cc[n+](Cc5ccc6ccccc6c5)c4)c3)ccc2c1	0.436	1.94	1.25 µM	2.97 µM	0.313	1.48	1.37	5.13	0.737 µM	4.17 µM	0.602 µM	2.97 µM	2.18 µM	13.1 µM			0.61 µM	12.3 µM	0.554 µM	5.44 µM
O=C(c1ccco1)c1c(C(F)(F)F)n([O-])c2ccc(Cl)cc2[n+]1=O	1.4		0.346 µM	6.33 µM	5.86	21.3	0.101	0.216			0.116 µM	5.1 µM	0.799 µM	2.1 µM	1.58 µM	5.67 µM	1.61 µM	3.18 µM	1.79 µM	7.05 µM
CC(C)(C)c1c2c(c(C(C)(C)C)c3c1OCN(Cc1ccccc1)C3)OCN(Cc1ccccc1)C2		23.2				43.1		22.3		44.6 µM		54.5 µM		77.3 µM		34.7 µM		35.6 µM		51.6 µM
Clc1cc(Cl)cc(N2N=C(c3cccc(Nc4ccncc4)c3)CC2c2ccc3c(c2)OCO3)c1 (centres undefined)							1.84	3.37			2.06 µM	4.86 µM					1.7 µM	3.34 µM	1.77 µM	3.2 µM
COc1ccccc1NC(=O)c1nc2ccc([N+](=O)[O-])cc2nc1C		> 100				> 100		> 100		> 100 µM		> 100 µM		> 100 µM		> 100 µM		> 100 µM		
Cc1ccc2c(c1)S(=O)(=O)c1ccc3ccccc3c1N2		> 100		> 100 µM				> 100				> 100 µM		> 100 µM		> 100 µM		> 100 µM		> 100 µM
NCCNCc1c2ccccc2c(CNCCN)c2ccccc12		21.2		58.6 µM		29.8		23.3				36.7 µM		60.3 µM				27.4 µM		82.8 µM
CN(Cc1cc(Cl)cc(Cl)c1O)Cc1c(O)ccc2ccccc12		29.6		57.4 µM		28.9				73.1 µM		61 µM		39.2 µM		37.9 µM		28.2 µM		36.1 µM
OCc1ccc(N2CCc3ccccc3C2)cc1Cl	17.2	61.1	17.9 µM	61.4 µM	20.3	56.6	1.15	7.11	0.617 µM	87.9 µM	< 0.0224 µM	19 µM	3.66 µM	36.6 µM	31 µM	> 100 µM	32.5 µM	> 100 µM		
COc1cc([C@@H]2C[C@H]2c2cc(SC)n[nH]2)cc(OC)c1OC	13.8	37.3							12.6 µM	37.2 µM	21 µM	> 100 µM	14 µM	45.1 µM	35 µM	> 100 µM	15.1 µM	50 µM	10.9 µM	28.5 µM
NCOC(=O)Cc1ccc(Br)cc1		> 100		> 100 µM		> 100				> 100 µM		> 100 µM		> 100 µM		> 100 µM		> 100 µM		> 100 µM
NCC1OC(OC2C(CO)OC(OC3C(O)C(N)CC(N)C3OC3OC(CO)C(O)CC3N)C2O)C(N)C(O)C1OC1OC(CO)C(O)C(O)C1O (centres undefined)			> 50 µg/mL	> 50 µg/mL					> 50 µg/mL	> 50 µg/mL	> 50 µg/mL	> 50 µg/mL	> 50 µg/mL	> 50 µg/mL	> 50 µg/mL	> 50 µg/mL	> 50 µg/mL	> 50 µg/mL	> 50 µg/mL	> 50 µg/mL

Structure (SMILES)	GI50 [1] [µM]	TGI [1] [µM]	GI50 [2]	TGI [2]	GI50 [3] [µM]	TGI [3] [µM]	GI50 [4] [µM]	TGI [4] [µM]	GI50 [5]	TGI [5]	GI50 [6]	TGI [6]	GI50 [7]	TGI [7]	GI50 [8]	TGI [8]	GI50 [9]	TGI [9]	GI50 [10]	TGI [10]
CCN1Cc2nc3sc(C)c(C)c3c(=O)n2C=C1C			2.1 µM	6.48 µM	16.4	73.5	5.19	37.8	2.64 µM	10.9 µM	3.35 µM	17.8 µM	4.83 µM	25.3 µM	17.9 µM	> 100 µM	5.41 µM	36.2 µM	20.2 µM	> 100 µM
CC1(c2ccccc2)CC(c2cccc([N+](=O)[O-])c2)=NO1 (centres undefined)		> 100				> 100		> 100		> 100 µM				> 100 µM				> 100 µM		> 100 µM
COc1ccc(-n2ccnc2-c2cc(OC)c(OC)c(OC)c2)cc1	2.92	8.12			0.747	> 100	0.957	24.6	3.78 µM	30.7 µM	3.14 µM	> 100 µM	4.71 µM	> 100 µM	4.64 µM	> 100 µM	8.69 µM	> 100 µM	1.99 µM	8.35 µM
COC1=CC(c2ccc[nH]2)=N/C1=C\c1[nH]c(C)c(C(=O)CCCCC(=O)Oc2ccc3c(c2)CCC2C3CC[C@]3(C)[C@@H](O)CC[C@@H]23)c1C (some centres undefined)			> 100 µM	> 100 µM			> 100	> 100	4.11 µM	> 100 µM			> 100 µM	> 100 µM	53.1 µM	> 100 µM	> 100 µM	> 100 µM	> 100 µM	> 100 µM
Cc1ccc(NC(=O)/C(Cl)=C(/Cl)C(=O)O)cc1		6.11		4.36 µM		29.3		34.3		49.8 µM		23.5 µM				> 100 µM		42 µM		96.8 µM
O=C(Nc1ccccc1)c1cc(S(=O)(=O)Nc2nc3ccccc3o2)c(SCc2ccccc2)cc1Cl	25.2	65					18.7	34.8	15.4 µM	46.8 µM	20.5 µM	68.7 µM	24.5 µM	65 µM	37 µM	> 100 µM	15.4 µM	41.4 µM	18.5 µM	33 µM
O=C(COC(=O)c1cccc2c(=O)c3ccccc3[nH]c12)Nc1ccc(C(=O)O)cc1		> 100		> 100 µM		> 100		> 100				> 100 µM		> 100 µM		> 100 µM		> 100 µM		> 100 µM
COc1ccc(C2C=C(c3ccc4c(c3)OCO4)Oc3c2c(=O)oc2ccccc32)cc1OC (centres undefined)		> 66.3		0.6 µM		> 100		2.26		5.29 µM				> 100 µM		> 100 µM		> 100 µM		> 100 µM
CC1=CC(N2C(=O)C(C)=CC2O)NC1=O (centres undefined)		> 100		> 100 µM		> 100		> 100						> 100 µM		> 100 µM		> 100 µM		> 100 µM
COc1cc(/C=C2\C[C@H]3[C@@H]4CC=C5C[C@@H](O)CC[C@]5(C)[C@H]4CC[C@]3(C)[C@H]2O)ccc1OCCCn1ccnc1	22.3	> 50	2.79 µM	15.9 µM			8.22	16.1			2.69 µM	> 50 µM	2.62 µM	16.1 µM	12.4 µM	> 50 µM	3.82 µM	19.2 µM	1.55 µM	6.32 µM
Cc1cc(C(C)(C)C)cc(CNC2CCCCC2)c1O		25.2				27.8		10.4		45.5 µM		51.3 µM		31 µM		31.9 µM		30.3 µM		31.7 µM
Cn1c(NCC(O)CN2CCCC2)cc(=O)n(C)c1=O (centres undefined)	> 100	> 100			> 100	> 100	> 100	> 100	> 100 µM	> 100 µM	> 100 µM	> 100 µM	> 100 µM	> 100 µM	> 100 µM	> 100 µM	> 100 µM	> 100 µM	> 100 µM	> 100 µM
CC(=O)c1cc(C(=O)c2ccc3c(c2)Sc2ccccc2N3)c2cc(C)ccn12	0.0412	> 100			0.0429	> 100	0.247	20.6	0.233 µM	> 100 µM	0.041 µM	> 100 µM	0.451 µM	> 100 µM	0.183 µM	> 100 µM	0.0823 µM	> 100 µM	0.036 µM	4.15 µM
CC1OC(OC2C(OC3CCC4(C)C(CCC5(C)C4CC=C4C6CC(C)(C)CCC6(C(=O)O)CCC45C)C3(C)CO)OCC(O)C2O)C(O)C(O)C1O (centres undefined)		28.8				37.5		30.8				44.7 µM		40.1 µM		32.3 µM		37.6 µM		32 µM
CCCCCCCCn1ccc2cc(NC(=O)Cn3cc(CN4CCCCC4)nn3)ccc21	1.8	4	1.98 µM	4.15 µM	1.58	3	1.66	3.28					2.98 µM	9.3 µM	1.82 µM	3.65 µM	2.05 µM	4.51 µM	1.81 µM	3.65 µM
COc1cc(-c2c(C#N)c(N)nc(N3CCOCC3)c2C#N)cc(OC)c1OC	> 100	> 100	> 100 µM	> 100 µM					> 100 µM	> 100 µM	> 100 µM	> 100 µM	> 100 µM	> 100 µM	89.9 µM	> 100 µM	> 100 µM	> 100 µM	> 100 µM	> 100 µM
O=S(=O)(/N=c1/scc(-c2ccccc2)n1-c1ccccc1)c1ccc(N2N=C3c4ccccc4CC3C2c2cccs2)cc1 (centres undefined)	61.9	> 100					32.8	81.3	51 µM	> 100 µM		> 100 µM	47.2 µM	> 100 µM	> 100 µM	> 100 µM	> 100 µM	> 100 µM	54.5 µM	> 100 µM
